In patent US9187496B2 (priority 2009, dated 2015):
Read-outs that look alike come from different tables or passages of the source.

Key:
[1] = system: Huh-7 cells containing HCV Con1 subgenomic replicon (GS4.1 cells); assay: HCV replicon assay (NS5A ELISA); format: cell-based; conditions: GS4.1 cells, 72 hrs, NS5A ELISA, read-out: EC50
Description: General Procedure: Huh-7 cells containing HCV Con1 subgenomic replicon (GS4.1 cells) were grown in Dulbecco's Modified Eagle Medium (DMEM) supplemented with 10% fetal bovine serum (FBS), 2 mM L-glutamine, 110 mg/L sodium pyruvate, 1× non-essential amino acids, 100 U/mL penicillin-streptomycin, and 0.5 mg/mL G418 (Invitrogen). For dose-response testing, the cells were seeded in 96-well plates at 7.5×10^3 cells/well in a volume of 50 μL, and incubated at 37° C./5% CO2. Three hours after plating, 50 μL of ten 2-fold serial dilutions of compounds (highest concentration, 75 μM) were added, and cell cultures were incubated at 37° C./5% CO2 in the presence of 0.5% DMSO. Alternatively, compounds were tested at a single concentration of 15 μM. In all cases, Huh-7 cells lacking the HCV replicon served as negative control. The cells were incubated in the presence of compounds for 72 hrs after which they were monitored for expression of the NS5A protein by enzyme-linked immunosorbent assay (ELISA). For this, the plates were then fixed for 1 min with acetone/methanol (1:1, v/v), washed twice with phosphate-buffered saline (PBS), 0.1% Tween 20, blocked for 1 hr at room temperature with TNE buffer containing 10% FBS and then incubated for 2 hr at 37° C. with the anti-NS5A mouse monoclonal antibody A-236 (ViroGen) diluted in the same buffer. After washing three times with PBS, 0.1% Tween 20, the cells were incubated 1 hr at 37° C. with anti-mouse immunoglobulin G-peroxidase conjugate in TNE, 10% FBS. After washing as described above, the reaction was developed with O-phenylenediamine (Zymed). The reaction was stopped after 30 min with 2 N H2SO4, and absorbance was read at 492 nm using Sunrise Tecan spectrophotometer. EC50 values were determined from the % inhibition versus concentration data using a sigmoidal non-linear regression analysis based on four parameters with Tecan Magellan software.

[2] = system: GS4.1 cells; assay: Cytotoxicity evaluation in GS4.1 cells (Cell Titer 96 AQueous One); format: cell-based, human; conditions: cellular viability
Description: For cytotoxicity evaluation, GS4.1 cells were treated with compounds as described above and cellular viability was monitored using the Cell Titer 96 AQueous One Solution Cell Proliferation Assay (Promega). CC50 values were determined from the % cytotoxicity versus concentration data with Tecan Magellan software as described above.

| Compound | EC50 ([1]; Hepatitis C virus, Huh-7) | CC50 [2] | EC50 [1] |
| --- | --- | --- | --- |
| COC(=O)N[C@H](C(=O)N1CCC[C@H]1c1ncc(-c2ccc(-c3cn4cc(NC(=O)[C@@H]5CCCN5C(=O)[C@H](NC(=O)OC(C)C)c5ccccc5)nc4s3)cc2)[nH]1)C(C)C [A56] | < 0.001 µM | > 75 µM | – |
| COC(=O)N[C@@H](C(=O)N1CCC[C@H]1C(=O)Nc1ccc(C#Cc2cn3cc(NC(=O)[C@@H]4CCCN4C(=O)[C@H](NC(=O)OC)c4ccccc4)nc3s2)cc1)c1ccccc1 [A80] | – | > 75 µM | < 0.001 µM |
| COC(=O)N[C@H](C(=O)N1CCCC1c1ncc(-c2ccc(-c3csc4c(-c5cnc(C6CCCN6C(=O)[C@H](NC(=O)OC)C(C)C)[nH]5)csc34)cc2)[nH]1)C(C)C (stereo partly shown) [A77] | < 0.001 µM | > 75 µM | – |
| COC(=O)N[C@H](C(=O)N1CCC[C@H]1c1ncc(-c2ccc(-c3cn4cc(NC(=O)[C@@H]5CCCN5C(=O)[C@H](NC(=O)OCC(C)C)c5ccccc5)nc4s3)cc2)[nH]1)C(C)C [A57] | – | > 75 µM | < 0.001 µM |
| CC(C)(C)OC(=O)N1CCCC1c1ncc(-c2ccc(-c3cn4ccsc4n3)cc2)[nH]1 (stereo not shown) [A167] | > 0.1 µM | – | – |
| COC(=O)N[C@H](C(=O)N1CCCC1c1ncc(-c2ccc(-c3cn4c(-c5ccccc5)csc4n3)cc2)[nH]1)C(C)C (stereo partly shown) [A162] | 0.001 to 0.01 µM | 10 to 75 µM | – |
| CCOC(=O)N[C@@H](C(=O)N1CCC[C@H]1C(=O)Nc1cn2cc(-c3ccc(-c4cnc([C@@H]5CCCN5C(=O)[C@@H](NC(=O)OC)C(C)C)[nH]4)cc3)sc2n1)c1ccccc1 [Compound A55, (S,S,S,R)-[1-(2-{5-[4-(6-{[1-(2-ethoxycarbonylamino-2-phenylacetyl)-pyrrolidine-2-carbonyl]-amino}imidazo[2,1-b]thiazol-2-yl)-phenyl]-1H-imidazol-2-yl}pyrrolidine-1-carbonyl)-2-methyl-propyl]-carbamic acid methyl ester] | < 0.001 µM | 10 to 75 µM | – |
| COC(=O)N[C@H](C(=O)N1CCC[C@H]1C(=O)Nc1cn2cc(-c3ccc(-c4cnc([C@@H]5CCCN5C(=O)[C@@H](NC(=O)OC)C(C)C)[nH]4)cc3)sc2n1)C(C)C [Compound A2, (S,S,S,S)-(1-{2-[2-(4-{2-[1-(2-methoxycarbonylamino-3-methyl-butyryl)-pyrrolidin-2-yl]-3H-imidazol-4-yl}-phenyl)-imidazo[2,1-b]thiazol-6-ylcarbamoyl]-pyrrolidine-1-carbonyl}-2-methyl-propyl)-carbamic acid methyl ester] | 0.001 to 0.01 µM | 10 to 75 µM | – |
| COC(=O)N[C@H](C(=O)N1CCCC1c1ncc(-c2ccc(-c3cc4sc(Br)cc4s3)cc2)[nH]1)C(C)C (stereo partly shown) [A168] | 0.01 to 0.1 µM | 10 to 75 µM | – |
| COC(=O)N[C@H](C(=O)N1CCCC1c1ncc(-c2ccc(-c3csc4c(-c5cnc(C6CCCN6C(=O)OCc6ccccc6)[nH]5)csc34)cc2)[nH]1)C(C)C (stereo partly shown) [A49] | < 0.001 µM | > 75 µM | – |
| CC(C)(C)OC(=O)N1CCCC1c1nc(-c2ccc(-c3cn4cc(-c5ccc(-c6cnc([C@@H]7CCCN7C(=O)OC(C)(C)C)[nH]6)cc5)sc4n3)cc2)c[nH]1 (stereo partly shown) [A157] | 0.01 to 0.1 µM | > 75 µM | – |
| COC(=O)N[C@H](C(=O)N1CCCC1c1ncc(-c2ccc(-c3csc4c(-c5cnc(C6CCCN6C(=O)[C@@H](NC(=O)OC(C)(C)C)C(C)C)[nH]5)csc34)cc2)[nH]1)C(C)C (stereo partly shown) [A76] | < 0.001 µM | > 75 µM | – |
| CC(C)(C)OC(=O)N1CCCC1c1ncc(-c2ccc(-c3nc4sccn4c3Cl)cc2)[nH]1 (stereo not shown) [A161] | > 0.1 µM | > 75 µM | – |
| COC(=O)N[C@H](C(=O)N1CCCC1c1ncc(-c2ccc(-c3csc4c(-c5cnc(C6CCCN6C(=O)OC(C)(C)C)[nH]5)csc34)cc2)[nH]1)C(C)C (stereo partly shown) [A151] | – | 10 to 75 µM | < 0.001 µM |
| COC(=O)N[C@H](C(=O)N1CCCC1c1ncc(-c2ccc(-c3csc4cc(C(=O)OC)[nH]c34)cc2)[nH]1)C(C)C (stereo partly shown) [A164] | 0.01 to 0.1 µM | 10 to 75 µM | – |
| COC(=O)N[C@H](C(=O)N1CCC[C@H]1C(=O)Nc1cn2cc(-c3cccc(NC(=O)[C@@H]4CCCN4C(=O)[C@H](NC(=O)OC)c4ccccc4)c3)sc2n1)C(C)C [A149] | 0.01 to 0.1 µM | 10 to 75 µM | – |

| Compound | EC50 ([1]; Hepatitis C virus, Huh-7) | CC50 [2] | EC50 [1] |
| --- | --- | --- | --- |
| CC(C)(C)OC(=O)N1CCCC1c1ncc(-c2cn3cc(-c4ccc(Cl)cc4)sc3n2)[nH]1 (stereo not shown) [A152] | > 0.1 µM | 10 to 75 µM | – |
| COC(=O)N[C@H](C(=O)N1CCCC1c1nc(-c2ccc(-c3cc4sc(-c5ccc(-c6cnc([C@@H]7CCCN7C(=O)[C@@H](NC(=O)OC)C(C)C)[nH]6)cc5)cc4s3)cc2)c[nH]1)C(C)C (stereo partly shown) [A159] | < 0.001 µM | > 75 µM | – |
| COC(=O)N[C@H](C(=O)N1CCC[C@H]1C(=O)Nc1ccc(-c2cn3cc(NC(=O)OC(C)(C)C)nc3s2)cc1)C(C)C [A34] | – | 10 to 75 µM | 0.001 to 0.01 µM |
| COC(=O)N[C@H](C(=O)N1CCCC1c1ncc(-c2ccc(-c3csc4c(-c5ccccc5)csc34)cc2)[nH]1)C(C)C (stereo partly shown) [A103] | 0.001 to 0.01 µM | 10 to 75 µM | – |
| COC(=O)N[C@H](C(=O)N1CCCC1c1ncc(-c2csc3c(-c4ccc(-c5cnc(C6CCCN6C(=O)[C@@H](NC(=O)OC)C(C)C)[nH]5)cc4)csc23)[nH]1)c1ccccc1 (stereo partly shown) [A78] | < 0.001 µM | > 75 µM | – |
| CC(C)(C)OC(=O)N[C@@H](C(=O)N1CCC[C@H]1C(=O)Nc1cn2cc(C#Cc3ccccc3)sc2n1)c1ccccc1 [Compound A23] | > 0.1 µM | 10 to 75 µM | – |
| COC(=O)N[C@H](C(=O)N1CCCC1c1ncc(-c2cn3cc(-c4ccc(-c5cnc([C@@H]6CCCN6C(=O)[C@@H](NC(=O)OC)C(C)C)[nH]5)cc4)nc3s2)[nH]1)C(C)C (stereo partly shown) [A7] | < 0.001 µM | > 75 µM | – |
| COC(=O)N[C@H](C(=O)N1CCC[C@H]1c1ncc(-c2csc3c(-c4cnc([C@@H]5CCCN5C(=O)[C@@H](NC(=O)OC)C(C)C)[nH]4)csc23)[nH]1)C(C)C [Compound A82, ((S)-1-{(S)-2-[5-(6-{2-[(S)-1-((S)-2-methoxycarbonylamino-3-methyl-butyryl)-pyrrolidin-2-yl]-3H-imidazol-4-yl}-thieno[3,2-b]thiophen-3-yl)-1H-imidazol-2-yl]-pyrrolidine-1-carbonyl}-2-methyl-propyl)-carbamic acid methyl ester] | < 0.001 µM | 10 to 75 µM | – |
| CC(C)(C)OC(=O)N[C@@H](C(=O)N1CCC[C@H]1C(=O)Nc1cn2cc(-c3ccccc3)sc2n1)c1ccccc1 [A27] | 0.01 to 0.1 µM | > 75 µM | – |
| COC(=O)N[C@H](C(=O)N1CCC[C@H]1c1ncc(-c2ccc(-c3cn4cc(NC(=O)C5CCCN5C(=O)CNC(=O)OC(C)(C)C)nc4s3)cc2)[nH]1)C(C)C (stereo partly shown) [A31] | 0.01 to 0.1 µM | > 75 µM | – |
| COC(=O)N[C@H](C(=O)N1CCC[C@H]1c1ncc(-c2ccc(-c3cn4cc(NC(=O)[C@@H]5CCCN5C(=O)[C@H](NC(=O)OC)c5ccccc5)nc4s3)cc2)[nH]1)C(C)C [Compound A30, (S,S,S,R)-[1-(2-{5-[4-(6-{[1-(2-methoxycarbonylamino-2-phenyl-acetyl)-pyrrolidin-2-carbonyl]-amino}-imidazo[2,1-b]thiazol-2-yl)-phenyl]-1H-imidazol-2-yl}-pyrrolidine-1-carbonyl)-2-methyl-propyl]-carbamic acid methyl ester] | < 0.001 µM | > 75 µM | – |
| COC(=O)N[C@H](C(=O)N1CCC[C@H]1c1ncc(-c2ccc(-c3cn4cc(NC(=O)CNC(=O)[C@H](NC(=O)OC(C)(C)C)c5ccccc5)nc4s3)cc2)[nH]1)C(C)C [A148] | 0.001 to 0.01 µM | > 75 µM | – |
| COC(=O)N[C@@H](C(=O)N1CCC[C@H]1C(=O)Nc1ccc(-c2cn3cc(NC(=O)[C@@H]4CCCN4C(=O)[C@H](NC(=O)OC)c4ccccc4)nc3s2)cc1)c1ccccc1 [A79] | – | > 75 µM | < 0.001 µM |
| COC(=O)N[C@H](C(=O)N1CCCC1c1nc(-c2ccc(-c3cn4cc(-c5ccc(-c6cnc([C@@H]7CCCN7C(=O)[C@@H](NC(=O)OC)C(C)C)[nH]6)cc5)sc4n3)cc2)c[nH]1)C(C)C (stereo partly shown) [A93] | < 0.001 µM | > 75 µM | – |
| COC(=O)N[C@H](C(=O)N1CCC[C@H]1c1ncc(-c2ccc(-c3cn4cc(NC(=O)[C@@H]5CCCN5C(=O)[C@H](NC(=O)OC(C)(C)C)c5ccccc5)nc4s3)cc2)[nH]1)C(C)C [Compound A1, (S,S,S,R)-[1-(2-{5-[4-(6-{[1-(2-tert-butoxycarbonylamino-2-phenyl-acetyl)-pyrrolidine-2-carbonyl]-amino}imidazo[2,1-b]thiazol-2-yl)-phenyl]-1H-imidazol-2-yl}pyrrolidine-1-carbonyl)-2-methyl-propyl]-carbamic acid methyl ester] | < 0.001 µM | > 75 µM | – |
